Source: US20240335420A1, “N-ACYLHYDRAZONE COMPOUNDS CAPABLE OF INHIBITING NAV 1.7 AND/OR NAV 1.8, PROCESSES FOR THE PREPARATION THEREOF, COMPOSITIONS, USES, METHODS FOR TREATMENT USING SAME AND KITS” (EUROFARMA LABORATÓRIOS S.A., priority 2021, published 2024)

What was measured:
[1] = biological target: human sodium channels Nav 1.7 (Homo sapiens (Human), UniProt Q15858); assay: Automated whole-cell voltage-clamp (ScreenPatch 384P), Nav 1.7 sodium current, Protocol 2; assay type: cell-based; settings: Protocol 2 (holding −100 mV, inactivation step −40 mV 8 s, 0.05 Hz); CHO cells expressing human Nav 1.7; read-out: Nav1.7 IC50
Procedure: (§1) Biological assays were performed on Chinese hamster ovary (CHO) cells expressing the human sodium channels Nav 1.8 and Nav 1.7 stably.
(§2) The experimental voltage-clamp protocol using the whole cell configuration was established on the automated ScreenPatch® 384P platform (SP384PE, Nanion Technologies, Livingston, NJ) and recording of the results was performed with a Nanion 384-well Patch Clamp chip (NPC) (Nanion Technologies, Livingston, NJ).
(§3) Compounds of Formula (I), were diluted in eight concentrations in the extracellular solution composed of physiological saline, buffered with HEPES (mM): NaCl, 137; KCl, 4; CaCl2, 3.8; MgCl2, 1; HEPES, 10; Glucose, 10; pH 7.4. The […], 50; CsF, 90; MgCl2, 5; EGTA, 5; HEPES, 10; pH 7.2. The duration of exposure of each compound with the cells expressing Nav 1.7 or Nav 1.8 was at least five minutes and the assays were performed at room temperature.
(§4) The measurements of the sodium currents of Nav 1.8 and Nav 1.7 were obtained using the voltage protocols described below: • Protocol 1: A holding voltage of −90 mV was established followed by a voltage phase of 200 ms to −120 mV, followed by a voltage step of 10 mV for 1 second for Nav 1.8 or 0 mV for Nav 1.7, followed by a step of −100 mV for 20 ms, followed by a step of 20 ms for 10 mV for Nav 1.8 or 0 mV for Nav 1.7 (TP1A) before returning to the holding voltage of −90 mV. • Protocol 2: A holding voltage of −100 mV was established followed by an inactivation voltage step at −40 mV for 8 seconds, followed by a −100 mV step for […], followed by a 20 ms step for 10 mV for Nav 1.8 or 0 mV for Nav 1.7 (TP1A) before returning to the holding voltage of −100 mV.
(§5) Protocols were repeated at a frequency of 0.1 Hz (Protocol 1) or 0.05 Hz (Protocol 2) and current amplitude was quantified over the TP1A phase log. The variation in the peak amplitude of the current was evaluated according to the Formula described below, after exposure of the cells expressing the channels, at each concentration of the different compounds:
(§6) [formula] • where |TP1A, basal, and |TP1A, molecule represent the entry peaks of sodium currents into TP1A prior to exposure to the compound and in the presence of the compound, respectively.
(§7) The decrease in peak current amplitude, after exposure of the cells to the compounds, was used to calculate the percent relative blocking of the channels relative to the positive control according to the Formula below:
(§8) [formula] • where % V and % CP represent the averages of the values of current inhibition with a vehicle (DMSO) and positive controls, respectively. The sodium currents of the positive control were considered as 100%.
(§9) [formula] • where [Test] represents the concentration of the evaluated molecule, IC50 is the concentration of the compound that generates half of the maximum inhibition, N is the Hill's coefficient and % Block′ is the percentage of the sodium channel current (Nav 1.8 and Nav 1.7) inhibited at each concentration of the evaluated molecule. Data were obtained by non-linear least squares regression with XLfit for Excel (Microsoft, Redmond, WA).
(§10) Compounds were tested in at least one assay to obtain the IC50 value.

[2] = biological target: human sodium channels Nav 1.8 (Homo sapiens (Human), UniProt Q9Y5Y9); assay: Automated whole-cell voltage-clamp (ScreenPatch 384P), Nav 1.8 sodium current, Protocol 2; assay type: cell-based; settings: Protocol 2 (holding −100 mV, inactivation step −40 mV 8 s, 0.05 Hz); CHO cells expressing human Nav 1.8; read-out: Nav1.8 IC50
Procedure: as §1, §2, §3, §4, §5, §6, §7, §8, §9, §10

Chain of human sodium channels Nav 1.7 (Q15858 whole entry): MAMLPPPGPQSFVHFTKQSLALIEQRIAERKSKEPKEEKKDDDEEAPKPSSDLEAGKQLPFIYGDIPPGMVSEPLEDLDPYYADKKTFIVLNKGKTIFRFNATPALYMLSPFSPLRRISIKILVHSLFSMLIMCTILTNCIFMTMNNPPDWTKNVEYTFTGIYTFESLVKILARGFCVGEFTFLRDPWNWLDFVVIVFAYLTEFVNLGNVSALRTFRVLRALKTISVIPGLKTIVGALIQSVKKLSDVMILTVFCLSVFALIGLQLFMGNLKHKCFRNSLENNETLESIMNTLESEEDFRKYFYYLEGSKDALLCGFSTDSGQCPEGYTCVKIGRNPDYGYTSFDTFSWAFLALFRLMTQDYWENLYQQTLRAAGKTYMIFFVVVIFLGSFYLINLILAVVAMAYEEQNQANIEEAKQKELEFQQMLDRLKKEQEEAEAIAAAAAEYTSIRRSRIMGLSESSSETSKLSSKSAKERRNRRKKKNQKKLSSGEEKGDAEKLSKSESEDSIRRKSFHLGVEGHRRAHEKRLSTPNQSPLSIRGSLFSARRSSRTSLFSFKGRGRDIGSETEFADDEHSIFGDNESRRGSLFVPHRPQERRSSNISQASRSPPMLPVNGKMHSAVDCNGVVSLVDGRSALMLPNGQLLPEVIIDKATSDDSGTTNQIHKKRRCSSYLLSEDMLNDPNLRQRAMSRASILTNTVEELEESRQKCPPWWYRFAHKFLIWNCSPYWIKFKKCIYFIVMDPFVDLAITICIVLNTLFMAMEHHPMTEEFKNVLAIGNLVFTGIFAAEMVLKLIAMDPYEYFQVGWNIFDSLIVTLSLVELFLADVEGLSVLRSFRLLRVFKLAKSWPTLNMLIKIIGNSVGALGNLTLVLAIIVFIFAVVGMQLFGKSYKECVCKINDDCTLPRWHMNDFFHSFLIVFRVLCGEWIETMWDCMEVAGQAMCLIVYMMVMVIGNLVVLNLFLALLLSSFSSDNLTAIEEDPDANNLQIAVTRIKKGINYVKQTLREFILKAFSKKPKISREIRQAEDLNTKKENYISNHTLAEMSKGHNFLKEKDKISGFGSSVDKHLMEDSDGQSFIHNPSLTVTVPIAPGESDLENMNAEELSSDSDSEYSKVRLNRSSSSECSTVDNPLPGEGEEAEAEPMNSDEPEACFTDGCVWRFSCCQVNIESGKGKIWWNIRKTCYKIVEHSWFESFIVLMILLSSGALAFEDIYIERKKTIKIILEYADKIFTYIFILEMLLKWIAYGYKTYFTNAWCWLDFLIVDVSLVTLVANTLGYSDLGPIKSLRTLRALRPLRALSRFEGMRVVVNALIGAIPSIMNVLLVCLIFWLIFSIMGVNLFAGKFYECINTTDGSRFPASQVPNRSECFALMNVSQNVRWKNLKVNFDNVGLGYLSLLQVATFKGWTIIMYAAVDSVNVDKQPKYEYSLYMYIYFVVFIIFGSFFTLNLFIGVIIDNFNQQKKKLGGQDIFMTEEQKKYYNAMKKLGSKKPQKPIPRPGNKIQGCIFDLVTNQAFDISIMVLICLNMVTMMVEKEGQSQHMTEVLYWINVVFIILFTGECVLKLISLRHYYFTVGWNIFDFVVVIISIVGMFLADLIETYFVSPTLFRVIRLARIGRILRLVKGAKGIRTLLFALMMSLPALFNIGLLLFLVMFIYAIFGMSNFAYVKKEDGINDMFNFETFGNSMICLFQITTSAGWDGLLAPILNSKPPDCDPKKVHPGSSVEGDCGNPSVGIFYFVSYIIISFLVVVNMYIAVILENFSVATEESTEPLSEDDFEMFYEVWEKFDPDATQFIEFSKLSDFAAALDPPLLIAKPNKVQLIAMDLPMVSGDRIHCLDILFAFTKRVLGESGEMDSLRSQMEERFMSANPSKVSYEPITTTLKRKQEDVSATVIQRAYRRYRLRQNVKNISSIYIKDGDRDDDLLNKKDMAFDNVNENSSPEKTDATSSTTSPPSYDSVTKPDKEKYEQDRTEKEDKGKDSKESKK
Chain of human sodium channels Nav 1.8 (Q9Y5Y9 whole entry): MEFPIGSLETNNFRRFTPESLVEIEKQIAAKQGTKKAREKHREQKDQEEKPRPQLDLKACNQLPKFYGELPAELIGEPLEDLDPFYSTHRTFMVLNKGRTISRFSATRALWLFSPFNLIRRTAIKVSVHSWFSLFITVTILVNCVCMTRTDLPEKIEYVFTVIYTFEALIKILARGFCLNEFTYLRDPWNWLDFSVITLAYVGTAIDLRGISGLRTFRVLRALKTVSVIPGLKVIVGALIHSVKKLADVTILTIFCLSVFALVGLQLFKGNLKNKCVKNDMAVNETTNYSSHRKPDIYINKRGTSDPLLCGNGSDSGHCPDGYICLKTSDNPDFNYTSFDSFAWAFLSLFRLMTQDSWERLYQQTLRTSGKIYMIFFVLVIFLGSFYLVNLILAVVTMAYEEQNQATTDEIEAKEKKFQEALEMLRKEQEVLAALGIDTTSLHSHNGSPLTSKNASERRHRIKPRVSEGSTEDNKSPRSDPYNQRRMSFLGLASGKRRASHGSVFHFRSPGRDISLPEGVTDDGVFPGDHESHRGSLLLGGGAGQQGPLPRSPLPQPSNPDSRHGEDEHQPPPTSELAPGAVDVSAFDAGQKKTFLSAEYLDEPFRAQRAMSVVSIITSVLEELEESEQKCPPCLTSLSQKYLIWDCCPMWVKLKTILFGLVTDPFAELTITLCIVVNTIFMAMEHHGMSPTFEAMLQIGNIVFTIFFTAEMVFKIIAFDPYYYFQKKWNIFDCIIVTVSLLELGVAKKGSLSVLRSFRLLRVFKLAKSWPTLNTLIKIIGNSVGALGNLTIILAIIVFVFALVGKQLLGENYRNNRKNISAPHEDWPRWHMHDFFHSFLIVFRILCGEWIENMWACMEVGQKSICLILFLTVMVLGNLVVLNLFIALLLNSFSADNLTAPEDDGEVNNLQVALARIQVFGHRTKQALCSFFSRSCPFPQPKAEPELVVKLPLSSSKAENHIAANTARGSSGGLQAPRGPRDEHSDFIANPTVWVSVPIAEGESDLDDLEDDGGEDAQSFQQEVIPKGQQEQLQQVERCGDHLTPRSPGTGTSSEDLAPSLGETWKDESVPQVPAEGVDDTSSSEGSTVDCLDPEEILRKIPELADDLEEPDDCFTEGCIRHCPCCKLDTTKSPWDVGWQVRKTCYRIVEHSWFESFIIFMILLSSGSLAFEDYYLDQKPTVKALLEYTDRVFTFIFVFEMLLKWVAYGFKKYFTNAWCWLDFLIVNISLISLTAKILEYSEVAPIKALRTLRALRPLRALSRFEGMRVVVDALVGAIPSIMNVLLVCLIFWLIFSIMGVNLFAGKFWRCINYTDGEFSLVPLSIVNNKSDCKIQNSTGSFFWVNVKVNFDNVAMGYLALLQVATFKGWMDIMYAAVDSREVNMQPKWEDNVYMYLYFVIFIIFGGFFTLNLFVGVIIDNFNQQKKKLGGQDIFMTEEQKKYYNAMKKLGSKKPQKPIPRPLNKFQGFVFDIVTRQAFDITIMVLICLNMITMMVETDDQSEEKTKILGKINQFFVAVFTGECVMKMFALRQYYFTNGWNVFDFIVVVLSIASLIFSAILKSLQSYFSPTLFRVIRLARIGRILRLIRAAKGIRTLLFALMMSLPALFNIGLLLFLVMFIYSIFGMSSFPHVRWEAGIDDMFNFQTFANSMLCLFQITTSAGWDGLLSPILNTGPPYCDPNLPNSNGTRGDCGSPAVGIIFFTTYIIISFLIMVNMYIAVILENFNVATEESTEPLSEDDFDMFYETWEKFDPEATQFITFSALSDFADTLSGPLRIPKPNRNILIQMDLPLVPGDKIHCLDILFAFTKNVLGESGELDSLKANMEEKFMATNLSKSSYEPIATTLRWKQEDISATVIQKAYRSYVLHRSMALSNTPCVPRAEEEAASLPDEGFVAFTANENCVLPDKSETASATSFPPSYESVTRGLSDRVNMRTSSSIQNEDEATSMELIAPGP

| SMILES | IC50 [1] [nM] | IC50 [2] [nM] |
| --- | --- | --- |
| CCCCOc1ccc(-c2cc(C(=O)N/N=C/c3cc(OC)cc(OC)c3)ccn2)cc1 [Compound 38, (E)-2-(4-butoxyphenyl)-N′-(3,5-dimethoxybenzylidene) isonicotinohydrazide] | > 10000 | > 1000 |
| COc1cc(/C=N/NC(=O)c2ccnc(-c3ccc(OC4CCCC4)cc3)c2)cc(OC)c1 [Compound 39, (E)-2-(4-(cyclopentyloxy)phenyl)-N′-(3,5-dimethoxybenzylidene) isonicotinohydrazide] | > 10000 | > 1000 |
| COc1cc(/C=N/NC(=O)c2cccc(-c3ccc(OC(F)(F)F)cc3)n2)cc(OC)c1 [Compound 40, (E)-N′-(3,5-dimethoxybenzylidene)-6-(4-(trifluoromethoxy)phenyl) picolinohydrazide] | 123 | 140 |
| CCCCOc1ccc(-c2cccc(C(=O)N/N=C/c3cc(OC)cc(OC)c3)n2)cc1 [Compound 41, (E)-6-(4-butoxyphenyl)-N′-(3,5-dimethoxybenzylidene) picolinohydrazide] | 1200 | > 1000 |
| COc1cc(/C=N/NC(=O)c2ccnc(-c3ccc(OC(C)C)cc3)n2)cc(OC)c1 [Compound 54, (E)-N′-(3,5-dimethoxybenzylidene)-2-(4-isopropoxyphenyl)pyrimidine-4-carbohydrazide] | 137 | 313 |
| COc1cc(/C=N/NC(=O)c2nccc(-c3ccc(Cl)cc3)n2)cc(OC)c1 [Compound 60, (E)-4-(4-chlorophenyl)-N′-(3,5-dimethoxybenzylidene)pyrimidine-2-carbohydrazide] | 5150 | 5040 |
| CCOc1ccc(-c2ccnc(C(=O)N/N=C/c3cc(OC)cc(OC)c3)n2)cc1 [Compound 61, (E)-N′-(3,5-dimethoxybenzylidene)-4-(4-ethoxyphenyl)pyrimidine-2-carbohydrazide] | 651 | 183 |
| COc1cc(/C=N/NC(=O)c2nccc(-c3ccc(OC(C)C)cc3)n2)cc(OC)c1 [Compound 62, (E)-N′-(3,5-dimethoxybenzylidene)-4-(4-isopropoxyphenyl)pyrimidine-2-carbohydrazide] | 302 | 462 |
| COc1cc(/C=N/NC(=O)c2nccc(-c3ccc(OC4CCCC4)cc3)n2)cc(OC)c1 [Compound 63, (E)-4-(4-(cyclopentyloxy)phenyl)-N′-(3,5-dimethoxybenzylidene)pyrimidine-2-carbohydrazide] | 306 | > 1000 |
| COc1cc(/C=N/NC(=O)c2nccc(-c3ccc(OC(F)(F)F)cc3)n2)cc(OC)c1 [Compound 64, (E)-N′-(3,5-dimethoxybenzylidene)-4-(4-(trifluoromethoxy)phenyl) pyrimidine-2-carbohydrazide] | 173 | 384 |
| COc1ccc(-c2ccnc(C(=O)N/N=C/c3cc(OC)cc(OC)c3)n2)cc1 [Compound 65, (E)-N′-(3,5-dimethoxybenzylidene)-4-(4-methoxyphenyl)pyrimidine-2-carbohydrazide] | 6440 | > 1000 |
| CCCOc1ccc(-c2ccnc(C(=O)N/N=C/c3cc(OC)cc(OC)c3)n2)cc1 [Compound 66, (E)-N′-(3,5-dimethoxybenzylidene)-4-(4-propoxyphenyl)pyrimidine-2-carbohydrazide] | 569 | > 1000 |
| CCOc1ccc(-c2cc(F)cc(C(=O)N/N=C/c3cc(OC)cc(OC)c3)n2)cc1 [Compound 68, (E)-N′-(3,5-dimethoxybenzylidene)-6-(4-ethoxyphenyl)-4-fluoropicolinohydrazide] | > 10000 | 636 |
| CCOc1ccc(-c2cc(C(F)(F)F)cc(C(=O)N/N=C/c3cc(OC)cc(OC)c3)n2)cc1 [Compound 69] | > 10000 | > 1000 |
| COc1ccc(-c2ccc(C(=O)N/N=C/c3cc(OC)cc(OC)c3)o2)cc1 [Compound 71, (E)-N′-(3,5-dimethoxybenzylidene)-5-(4-methoxyphenyl) furan-2-carbohydrazide] | > 10000 | > 1000 |
| COc1ccc(-c2ccc(C(=O)N/N=C/c3cc(OC)cc(OC)c3)s2)cc1 [Compound 72, (E)-N′-(3,5-dimethoxybenzylidene)-5-(4-methoxyphenyl)thiophene-2-carbohydrazide] | > 10000 | > 1000 |
| COc1ccc(-c2ncc(C(=O)N/N=C/c3cc(OC)cc(OC)c3)o2)cc1 [Compound 73, (E)-N′-(3,5-dimethoxybenzylidene)-2-(4-methoxyphenyl) oxazole-5-carbohydrazide] | > 10000 | > 1000 |
| COc1ccc(-c2nc(C(=O)N/N=C/c3cc(OC)cc(OC)c3)co2)cc1 [Compound 74, (E)-N′-(3,5-dimethoxybenzylidene)-2-(4-methoxyphenol) oxazole-4-carbohydrazide] | > 10000 | > 1000 |
| COc1ccc(-c2noc(C(=O)N/N=C/c3cc(OC)cc(OC)c3)n2)cc1 [Compound 75, (E)-N′-(3,5-dimethoxybenzylidene)-3-(4-methoxyphenol)-1,2,4-oxadiazole-5-carbohydrazide] | > 10000 | > 1000 |
| COc1ccc(-c2nc(C(=O)N/N=C/c3cc(OC)cc(OC)c3)cs2)cc1 [Compound 76, (E)-N′-(3,5-dimethoxybenzylidene)-2-(4-methoxyphenyl) thiazole-4-carbohydrazide] | > 10000 | > 1000 |
